Source: the supplement of paper PMC10331698
± gives the standard deviation of the averaged measurements.

Assays:
Test in all cases: level (log10 ratio to DMSO vehicle control); higher = higher biomarker level / cell amount than vehicle control
[1] = compound: OCCCC(F)(F)C(F)(F)C(F)(F)C(F)(F)C(F)(F)C(F)(F)C(F)(F)C(F)(F)F [3-(Perfluorooctyl)propanol]; conditions: 6700 nM; in DMSO
Experimental: (§1)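 BioMAP Diversity Plus panel of 12 human primary cell co-culture systems (3C, 4H, LPS, SAg, BT, BF4T, BE3C, CASM3C, HDF3CGF, KF3CT, MyoF, Mphg). Compounds were added 1 h before stimulation and left for 24 h (MyoF 48 h; BT 72 h for soluble read-outs or 6 d for IgG). Biomarkers were read by ELISA, cytotoxicity by SRB, PBMC viability and proliferation by Alamar Blue. Each well value was divided by the mean of 8 DMSO control wells on the same plate and log10 transformed; duplicate blinded samples were tested at 4 concentrations.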

[2] = compound: OCC(F)(F)C(F)(F)C(F)(F)C(F)(F)C(F)(F)C(F)(F)C(F)(F)C(F)(F)C(F)(F)C(F)(F)C(F)(F)F [11:1 Fluorotelomer alcohol]; conditions: in DMSO
Experimental: as §1

[3] = compound: FC(F)(I)C(F)(F)C(F)(F)C(F)(F)C(F)(F)C(F)(F)I [1,6-Diiodoperfluorohexane]; conditions: 6700 nM; in DMSO
Experimental: as §1

[4] = compound: OCCCCC(F)(F)C(F)(F)C(F)(F)C(F)(F)F [4:4 Fluorotelomer alcohol]; conditions: in DMSO
Experimental: as §1

[5] = compound: C=CC(=O)OCCC(F)(F)C(F)(F)C(F)(F)C(F)(F)C(F)(F)C(F)(F)C(F)(F)C(F)(F)F [8:2 Fluorotelomer acrylate]; conditions: in DMSO
Experimental: as §1

[6] = compound: OCC(F)(F)C(F)(F)C(F)(F)C(F)(F)C(F)(F)C(F)(F)F [6:1 Fluorotelomer alcohol]; conditions: in DMSO
Experimental: as §1

[7] = compound: FC(F)(F)COC(OCC(F)(F)F)OCC(F)(F)F [tris(Trifluoroethoxy)methane]; conditions: in DMSO
Experimental: as §1

[8] = compound: OCCC(F)(F)C(F)(F)C(F)(F)C(F)(F)C(F)(F)C(F)(F)C(F)(F)C(F)(F)F [8:2 Fluorotelomer alcohol]; conditions: 6700 nM; in DMSO
Experimental: as §1

Test System | level (log10) [1] | level (log10) ([2]; 1100 nM) | level (log10) ([2]; 3300 nM) | level (log10) ([2]; 10000 nM) | level (log10) [3] | level (log10) ([4]; 6700 nM) | level (log10) ([4]; 20000 nM) | level (log10) ([4]; 60000 nM) | level (log10) ([5]; 6700 nM) | level (log10) ([5]; 20000 nM) | level (log10) ([5]; 60000 nM) | level (log10) ([6]; 6700 nM) | level (log10) ([6]; 20000 nM) | level (log10) ([6]; 60000 nM) | level (log10) ([7]; 6700 nM) | level (log10) ([7]; 20000 nM) | level (log10) ([7]; 60000 nM) | level (log10) [8]
BF4T:MMP-3 | 0.018 ± 0.03 | 0.008 ± 0.0014 | 0.009 ± 0.0057 | 0.0435 ± 0.035 | -0.029 | 0.0075 ± 0.021 | 0.017 ± 0.041 | 0.0295 ± 0.067 | -0.014 ± 0.0057 | -0.022 ± 0.0057 | 0.0085 ± 0.028 | -0.012 ± 0.018 | -0.0195 ± 0.0064 | -0.002 ± 0.021 | 0.014 ± 0.044 | 0.004 ± 0.041 | 0.006 ± 0.042 | -0.001 ± 0.0014
BF4T:MMP-9 | 0.0155 ± 0.057 | -0.025 ± 0.03 | -0.02 ± 0.0071 | -0.03 ± 0.0057 | -0.059 | 0.0045 ± 0.013 | -0.0015 ± 0.013 | 0.0275 ± 0.06 | -0.0255 ± 0.0064 | -0.0215 ± 0.012 | -0.021 ± 0.042 | -0.023 ± 0.016 | -0.004 ± 0.011 | 0.014 ± 0.0085 | 0.015 ± 0.061 | 0.0075 ± 0.049 | 0.0205 ± 0.033 | -0.0325 ± 0.0078
BF4T:PAI-I | -0.016 ± 0.024 | -0.003 ± 0.011 | -0.003 ± 0.0042 | 0.002 ± 0.027 | -0.072 | 0.0065 ± 0.0078 | 0.011 ± 0.0099 | 0.0125 ± 0.012 | -0.0035 ± 0.0064 | -0.0055 ± 0.0035 | 0.007 ± 0.017 | -0.001 ± 0.0028 | -0.012 | 0.002 ± 0.021 | 0.0025 ± 0.023 | -0.012 ± 0.0042 | 0.007 | -0.0135 ± 0.0035
BF4T:SRB | -0.0075 ± 0.0021 | -0.003 ± 0.0014 | -0.0075 ± 0.0064 | 0.001 ± 0.014 | -0.016 | -0.0105 ± 0.0092 | -0.0085 ± 0.0064 | -0.002 ± 0.011 | -0.004 ± 0.0028 | -0.011 ± 0.013 | 0.0055 ± 0.0092 | -0.0045 ± 0.0064 | -0.0045 ± 0.013 | -0.004 ± 0.023 | -0.0065 ± 0.0064 | -0.0085 ± 0.00071 | -0.003 ± 0.014 | -0.0095 ± 0.0035
BF4T:tPA | 0.056 ± 0.016 | 0.0015 ± 0.0092 | -0.003 ± 0.0071 | 0.026 ± 0.024 | -0.119 | -0.0095 ± 0.011 | -0.01 | 0.0205 ± 0.036 | -0.046 ± 0.013 | -0.0635 ± 0.023 | -0.0465 ± 0.012 | -0.0055 ± 0.016 | -0.013 ± 0.021 | 0.0095 ± 0.029 | 0.0025 ± 0.022 | -0.0105 ± 0.016 | -0.004 ± 0.0014 | -0.103 ± 0.029
BF4T:uPA | 0.006 ± 0.0085 | 0 | -0.005 ± 0.0071 | 0.0015 ± 0.0064 | -0.031 | -0.0125 ± 0.0078 | -0.015 ± 0.0028 | 0.0105 ± 0.04 | -0.0405 ± 0.039 | -0.033 ± 0.025 | -0.023 ± 0.031 | -0.0155 ± 0.0064 | -0.011 ± 0.018 | -0.023 ± 0.024 | 0.001 ± 0.0099 | -0.017 ± 0.011 | -0.0095 ± 0.00071 | -0.047 ± 0.0057
BT:B cell Proliferation | -0.0025 ± 0.0064 | -0.103 ± 0.023 | -0.144 ± 0.026 | -0.44 ± 0.42 | -0.019 | 0.0045 ± 0.018 | 0.005 ± 0.027 | -0.0015 ± 0.016 | 0.0155 ± 0.0021 | 0.0035 ± 0.00071 | -0.0005 ± 0.04 | -0.007 ± 0.013 | -0.009 ± 0.038 | -0.148 ± 0.1 | -0.021 ± 0.021 | -0.005 ± 0.018 | -0.006 ± 0.073 | 0.0245 ± 0.0064
BT:PBMC Cytotoxicity | 0.021 ± 0.028 | -0.073 ± 0.044 | -0.09 ± 0.038 | -0.0775 ± 0.019 | 0.035 | -0.0265 ± 0.0064 | -0.035 ± 0.0014 | -0.0195 ± 0.064 | 0.011 ± 0.018 | -0.0035 ± 0.035 | -0.021 ± 0.079 | 0.017 ± 0.025 | 0.011 ± 0.037 | -0.082 ± 0.03 | 0.002 ± 0.033 | 0.005 ± 0.035 | 0.006 ± 0.0057 | 0.001 ± 0.038
BT:Secreted IgG | 0.009 ± 0.016 | 0.007 ± 0.025 | 0.0025 ± 0.033 | -0.014 ± 0.054 | 0.019 | 0.01 ± 0.024 | 0.0045 ± 0.021 | -0.0055 ± 0.037 | -0.0205 ± 0.012 | -0.041 ± 0.031 | -0.11 ± 0.13 | 0.004 ± 0.042 | -0.0005 ± 0.04 | -0.161 ± 0.14 | 0.019 ± 0.079 | -0.0135 ± 0.091 | 0.042 ± 0.014 | -0.0885 ± 0.088
BT:sIL-2 | -0.0245 ± 0.016 | 0.108 ± 0.058 | 0.0255 ± 0.083 | -0.02 ± 0.073 | -0.059 | -0.0015 ± 0.044 | -0.0135 ± 0.043 | -0.017 ± 0.092 | 0.051 ± 0.0042 | -0.061 ± 0.17 | -0.036 ± 0.13 | 0.0235 ± 0.028 | -0.012 ± 0.075 | -0.289 ± 0.081 | -0.0155 ± 0.016 | 0.0015 ± 0.021 | 0.029 ± 0.025 | 0.001 ± 0.052
BT:sIL-6 | 0.0875 ± 0.052 | 0.209 ± 0.0092 | 0.116 ± 0.034 | 0.083 ± 0.085 | -0.018 | 0.036 ± 0.033 | -0.0255 ± 0.005 | -0.069 ± 0.09 | 0.0525 ± 0.019 | 0.029 ± 0.0028 | 0.0215 ± 0.039 | -0.001 ± 0.025 | -0.034 ± 0.073 | -0.296 ± 0.036 | -0.006 ± 0.037 | 0.0005 ± 0.0092 | -0.0105 ± 0.11 | 0.0665 ± 0.013
BT:sIL-17A | 0.023 ± 0.028 | 0.329 ± 0.16 | 0.401 ± 0.032 | 0.325 ± 0.06 | -0.079 | 0.026 ± 0.12 | -0.003 ± 0.0099 | -0.111 ± 0.061 | 0.0205 ± 0.054 | 0.0765 ± 0.13 | -0.141 ± 0.084 | -0.063 ± 0.088 | -0.107 ± 0.11 | -0.475 ± 0.093 | -0.0445 ± 0.0078 | -0.126 ± 0.15 | 0.079 ± 0.02 | -0.034 ± 0.12
BT:sIL-17F | -0.101 ± 0.015 | 0.308 ± 0.0078 | 0.319 ± 0.096 | 0.33 ± 0.077 | 0.06 | -0.0645 ± 0.0092 | -0.107 ± 0.015 | -0.161 ± 0.15 | -0.018 ± 0.061 | -0.0565 ± 0.022 | -0.03 ± 0.014 | 0.0105 ± 0.0035 | -0.0465 ± 0.025 | -0.388 ± 0.029 | -0.024 ± 0.031 | -0.0565 ± 0.032 | 0.0095 ± 0.084 | 0.013 ± 0.065
BT:sTNF-alpha | -0.0805 ± 0.029 | -0.057 ± 0.031 | -0.127 ± 0.0064 | -0.0825 ± 0.079 | -0.145 | -0.0875 ± 0.033 | -0.046 ± 0.13 | -0.0085 ± 0.17 | 0.128 ± 0.0057 | 0.034 ± 0.027 | 0.159 ± 0.14 | 0.0265 ± 0.084 | -0.0265 ± 0.033 | -0.33 ± 0.0042 | 0.017 ± 0.11 | -0.0365 ± 0.033 | 0.0085 ± 0.043 | 0.093 ± 0.034
LPS:CCL2/MCP-1 | -0.0925 ± 0.13 | -0.001 ± 0.0028 | -0.011 ± 0.011 | -0.009 ± 0.035 | 0.01 | -0.006 ± 0.0071 | -0.002 ± 0.023 | -0.006 ± 0.011 | -0.0105 ± 0.0021 | -0.014 ± 0.0071 | 0.015 ± 0.041 | -0.0015 ± 0.029 | -0.0045 ± 0.012 | 0.0045 ± 0.029 | 0.0085 ± 0.04 | 0.021 ± 0.042 | 0.036 ± 0.034 | 0.0055 ± 0.011
LPS:CD40 | -0.039 ± 0.018 | 0.0305 ± 0.028 | 0.0205 ± 0.0035 | -0.0275 ± 0.00071 | -0.009 | -0.0175 ± 0.063 | -0.0095 ± 0.028 | -0.042 ± 0.027 | -0.008 ± 0.017 | -0.0285 ± 0.036 | -0.031 ± 0.016 | 0.053 ± 0.016 | 0.048 ± 0.052 | 0.041 ± 0.0028 | -0.0235 ± 0.023 | -0.0275 ± 0.0092 | -0.013 ± 0.027 | -0.068 ± 0.014
